4 compounds from patent US10375956B2, “Herbicidally active 2-(substituted-phenyl)-cyclopentane-1,3-dione compounds and derivatives thereof” (Syngenta Limited, priority 2013, dated 2019) can be followed below.

Where two headings read alike, the source gives them in different places.

What all share (assay type): in vivo
Assay [1] deals with Alopecurus myosuroides (ALOMY). Description: Test 1 glasshouse assay, post-emergence herbicidal activity. To be noted: 312 h, after 13 days, read-out: Percentage phytotoxicity ALOMY. The procedure, abridged:
(§1)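 Plants sprayed 8 days after sowing with active ingredient in acetone/water (50:50) containing 0.5% Tween 20, grown in glasshouse at 24/16°C day/night, 14 h light, 65% humidity. Phytotoxicity scored visually after 13 days as percentage damage (100% = total damage; 0% = none).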

The test system of assay [2] is Echinochloa crus-galli (ECHCG). The assay is described as above. The conditions noted are these: 312 h, after 13 days, read-out: Percentage phytotoxicity ECHCG. The procedure, abridged: as §1
Assay [3] concerns Digitaria sanguinalis (DIGSA). Description: Test 2 glasshouse assay (IF50 formulation, X-77), pre-emergence herbicidal activity. The conditions noted are these: 480 h, 250 g/ha, 20DAA, read-out: Percentage phytotoxicity DIGSA. An outline of the steps: (§2)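 Percent phytotoxicity is scored by eye 20 days after a pre-emergence spray given one day after sowing, or 15 days after a post-emergence spray given about 12 days after sowing. Spray is IF50 formulation diluted in 0.2% v/v X-77 aqueous adjuvant.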

The test system of assay [4] is Sorghum vulgare Pers. (SORVU). Described as above. The conditions noted are these: Sorghum bicolor, 480 h, 250 g/ha, 20DAA, read-out: Percentage phytotoxicity SORVU. An outline of the steps:
as §2

The subject of assay [5] is Alopecurus myosuroides (ALOMY). Description: Test 2 glasshouse assay (IF50 formulation, X-77), post-emergence herbicidal activity. The conditions noted are these: 360 h, 15 DAA, visual score, read-out: Post-emergence herbicidal activity (percentage phytotoxicity) ALOMY; for pest or weed control at 250 g/ha: application rate 250 g/ha; for pest or weed control at 30 g/ha: application rate 30 g/ha. The procedure, abridged:
(§3)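 Plants in soil pots were sprayed 1 day (pre-emergence) or ~12 days (post-emergence) after sowing with IF50 formulation diluted in 0.2% v/v X-77. Cool species were grown at 20/16 °C day/night, 16 h light, 65% humidity. Visual % phytotoxicity was scored at 20DAA (pre) or 15DAA (post).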

The subject of a further assay is Avena fatua (AVEFA). The description is as above. To be noted: 360 h, 15 DAA, visual score, read-out: Post-emergence herbicidal activity (percentage phytotoxicity) AVEFA; for pest or weed control at 250 g/ha: application rate 250 g/ha; for pest or weed control at 30 g/ha: application rate 30 g/ha. The procedure, abridged:
as §3

The test system of the next assay is Lolium perenne (LOLPE). The assay is described as above. The conditions noted are these: 360 h, 15 DAA, visual score, read-out: Post-emergence herbicidal activity (percentage phytotoxicity) LOLPE; for pest or weed control at 250 g/ha: application rate 250 g/ha; for pest or weed control at 30 g/ha: application rate 30 g/ha. An outline of the steps: as §3
The test system of assay [6] is Triticum aestivum (TRZAW, winter wheat). The description is as above. The conditions noted are these: 360 h, 15 DAA, visual score, read-out: Post-emergence herbicidal activity (percentage phytotoxicity) TRZAW; for plant injury at 250 g/ha: application rate 250 g/ha; for plant injury at 30 g/ha: application rate 30 g/ha. An outline of the steps: (§4)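 Plants grown ~12 days (range 10-13) in glasshouse (cool species 20/16° C., warm 24/18° C. day/night; 16 h light; 65% humidity), then sprayed post-emergence with IF50 formulation in aqueous 0.2% v/v X-77. Visual percentage phytotoxicity scored 15 days after application (100% = total damage, 0% = none).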

The subject of assay [7] is Beta vulgaris (BEAVA, sugarbeet). Described as above. To be noted: 360 h, 15 DAA, visual score, read-out: Post-emergence herbicidal activity (percentage phytotoxicity) BEAVA; for plant injury at 250 g/ha: application rate 250 g/ha; for plant injury at 30 g/ha: application rate 30 g/ha. The procedure, abridged: as §4
In assay [8] the test system is Glycine max (GLXMA, soybean). The description is as above. The conditions noted are these: 360 h, 15 DAA, visual score, read-out: Post-emergence herbicidal activity (percentage phytotoxicity) GLXMA; for plant injury at 250 g/ha: application rate 250 g/ha; for plant injury at 30 g/ha: application rate 30 g/ha. The procedure, abridged: as §4
The test system of assay [9] is Brassica napus (BRSNN, rape). The assay is described as above. To be noted: 360 h, 15 DAA, visual score, read-out: Post-emergence herbicidal activity (percentage phytotoxicity) BRSNN; for plant injury at 250 g/ha: application rate 250 g/ha; for plant injury at 30 g/ha: application rate 30 g/ha. An outline of the steps: as §4
Setting [10] is: post-emergence (Example 1B Table 1).
The mark [11] stands for this setting: post-emergence (Example 1B Table 2), 62.5 g/ha.
Setting [12] is: post-emergence (Example 1B Table 2).

Regarding `C#CCC1CC(=O)C(c2cc(-c3ccc(Cl)cc3Cl)ccc2C)C1=O` (centres unmarked) [Compound A15], the pest or weed control at 250 g/ha in assay [1] (setting [10]) came to 10%; in assay [2] (setting [10]), 70%; in assay [3] it was 50%; in assay [4] it was 30%; in assay [5], 40%; in the assay with Avena fatua (AVEFA), 10%. Also, in the assay with Lolium perenne (LOLPE), the pest or weed control at 250 g/ha was 20%. Further, the plant injury at 250 g/ha in [6] was found to be 10%; in [7] it was 40%; in assay [8], 10%; in assay [9] it was 60%.
`C#CCC1CC(=O)C(c2c(Cl)cc(-c3ccc(F)cc3)cc2OC)C1=O` (centres unmarked) [Compound A7]: the pest or weed control at 30 g/ha in assay [1] (setting [10]) stood at 70%; in assay [2] (setting [10]), 100%; in assay [5], 10%; in the assay with Avena fatua (AVEFA) it was 20%; with Lolium perenne (LOLPE) it was 30%. Further, the pest or weed control at 250 g/ha turned out to be 100% in [1] (setting [10]); 100% in assay [2] (setting [10]); 100% in assay [3]; 90% in assay [4]; 100% in assay [5]; 100% in the assay on Avena fatua (AVEFA). Besides, the pest or weed control at 250 g/ha in the assay on Lolium perenne (LOLPE) worked out at 80%. Besides, the plant injury at 30 g/ha in [6] turned out to be 50%; in assay [7], 20%; in assay [8], 0%; in assay [9], 60%. Moreover, the plant injury at 250 g/ha in assay [6] worked out at 90%; in [7] it was 70%; in assay [8] it was 20%; in assay [9] it was 80%.
On to `C#CCC1CC(=O)C(c2c(F)cc(-c3ccc(Cl)cn3)cc2Cl)C1=O` (centres unmarked) [Compound A8], for which the pest or weed control at 30 g/ha was 100% in assay [1] (setting [10]); 100% in assay [2] (setting [10]); 50% in [5]; 50% in the assay with Avena fatua (AVEFA); 40% with Lolium perenne (LOLPE). Besides, the pest or weed control at 250 g/ha came to 100% in [1] (setting [10]); 100% in assay [1] (setting [12]); 100% in [2] (setting [10]); 100% in assay [2] (setting [12]); 80% in assay [3]; 80% in assay [4]. Besides, the pest or weed control at 250 g/ha in assay [5] came to 80%; in the assay with Avena fatua (AVEFA) it was 90%; with Lolium perenne (LOLPE) it was 60%. In addition, the pest or weed control at 62.5 g/ha in assay [1] (setting [11]) was found to be 80%; in [2] (setting [11]), 100%. The plant injury at 30 g/ha in assay [6] was found to be 30%; in assay [7] it was 10%; in [8], 20%; in assay [9], 70%. Further, the plant injury at 250 g/ha in assay [6] came to 90%; in assay [7], 60%; in [8] it was 40%; in assay [9], 80%.
`C#CCC1CC(=O)C(c2c(F)cc(-c3ccc(Cl)cc3)cc2Cl)C1=O` (centres unmarked) [Compound A6, 2-[2-chloro-4-(4-chlorophenyl)-6-fluorophenyl]-4-prop-2-ynylcyclopentane-1,3-dione]: the pest or weed control at 30 g/ha stood at 80% in assay [1] (setting [10]) and 100% in [2] (setting [10]). In addition, the pest or weed control at 250 g/ha came out at 100% in assay [1] (setting [10]); 100% in assay [1] (setting [12]); 100% in assay [2] (setting [10]); 100% in assay [2] (setting [12]); 20% in assay [3]; 40% in assay [4]. Also, the pest or weed control at 250 g/ha was 100% in [5], 80% in the assay on Avena fatua (AVEFA) and 70% in the assay on Lolium perenne (LOLPE). In addition, the pest or weed control at 125 g/ha worked out at 80% in assay [5] (application rate 125 g/ha), 70% with Avena fatua (AVEFA) (application rate 125 g/ha) and 30% with Lolium perenne (LOLPE) (application rate 125 g/ha). Besides, the plant injury at 125 g/ha in [6] (application rate 125 g/ha) turned out to be 80%; in [7] (application rate 125 g/ha), 20%; in assay [8] (application rate 125 g/ha), 10%; in [9] (application rate 125 g/ha), 20%. For the same compound, the plant injury at 250 g/ha was 90% in assay [6], 40% in assay [7], 10% in assay [8] and 40% in assay [9].
